{
  "source": "patent US20220195059A1",
  "about": "“Rank Pathway Inhibitors in Combination with CDK Inhibitors” (INSTITUTO DE MEDICINA MOLECULAR JOÃO LOBO ANTUNES, priority 2019, published 2022)",
  "molecules": {"B1": {"name": "OPG: full-length OPG protein, soluble decoy receptor for RANK ligand (protein, UniProt O00300 1-401, looked up)", "chain": "MNNLLCCALVFLDISIKWTTQETFPPKYLHYDEETSHQLLCDKCPPGTYLKQHCTAKWKTVCAPCPDHYYTDSWHTSDECLYCSPVCKELQYVKQECNRTHNRVCECKEGRYLEIEFCLKHRSCPPGFGVVQAGTPERNTVCKRCPDGFFSNETSSKAPCRKHTNCSVFGLLLTQKGNATHDNICSGNSESTQKCGIDVTLCEEAFFRFAVPTKFTPNWLSVLVDNLPGTKVNAESVERIKRQHSSQEQTFQLLKLWKHQNKDQDIVKKIIQDIDLCENSVQRHIGHANLTFEQLRSLMESLPGKKVGAEDIEKTIKACKPSDQILKLLSLWRIKNGDQDTLKGLMHALKHSKTYHFPKTVTQSLKKTIRFLHSFTMYKLYQKLFLEMIGNQVQSVKISCL", "modifications": "full-length", "notes": "full-length OPG protein, soluble decoy receptor for RANK ligand"}},
  "format_in_all_cases": "cell-based, human",
  "key": {"[1]": {"test_system": "RANK OE cells (MCF-7^OE, T47D^OE) and parental MCF-7, T47D cells", "experiment": "Alamar blue viability assay, RANK OE luminal breast cancer cells vs parental counterparts", "conditions": "for sensitivity of RANK OE cells to the drug (cell viability): RANK OE cells vs parental counterparts, drug alone", "experimental": "(§1) Cells were seeded in 96 well-plates (2-5×10^4 cells/mL), with or without paclitaxel (Y0000698, Sigma), doxorubicin hydrochloride (D2975000, Sigma), palbociclib (PD 0332991 isethionate, PZ0199, Sigma), ribociclib (LEE011 succinate, SC-488174, Santa Cruz), abemaciclib mesylate (LY2835219, S7158, Selleckchem), fulvestrant (S1191, Selleckchem), everolimus (#73122, StemCell Technologies), full length human OPG (SRP3132, Sigma), and OPG-Fc (Amgen). Medium was replaced every 2 days. After 7 days, 1:10 Alamar blue (Invitrogen) was added to each well and fluorescence was measured 2 hours after incubation (excitation 560 nm; emission 590 nm) in an Infinite M200 microplate reader (Tecan).\nIn particular, RANK OE cells were tested for responsiveness to hormone therapy. Briefly, RANK OE cells were seeded in multi-well plates and exposed to fulvestrant for 7 days.\nIn this assay, however, RANK OE cells were exposed to a CDK 4/6 inhibitor alone or in combination with an inhibitor of the RANK pathway, in order to test the effect of blocking the RANK pathway in this context. Briefly, RANK OE cells were seeded in multi-well plates and exposed to palbociclib, ribociclib or abemaciclib alone or in combination with OPG-Fc for 7 days. Osteoprotegrin (OPG) is the physiologic soluble decoy receptor for RANK ligand (RANKL), and OPG-Fc is a fusion protein comprising only the four cysteine-rich domains of OPG (D1 to D4) fused with the Fc domain of an IgG1 antibody.\nIn this study, the CDK4/6 inhibitors palbociclib and ribociclib were exposed to RANK OE cells in combination with fulvestrant or everolimus. This combination therapy was then tested alone or in combination with OPG, an inhibitor of the RANK pathway. In this assay, the full-length OPG protein was used, in contrast to the previous example utilizing OPG-Fc.\nTo address this question, cell growth in the presence or absence of a CDK4 inhibitor was quantified. Briefly, cells were seeded in 96-well plates and exposed to two different drugs, CDK4 inhibitors, 3-ATA (FIG. 20A) or Cdk4 inhibitor Ill (FIG. 20B) for seven days. Medium was replaced every two days, and viability was assessed by Alamar blue assay. FIG. 20A provides the cell growth quantification in the presence of the CDK4 inhibitor 3-ATA and FIG. 20B provides the cell growth quantification in the presence of another CDK4 inhibitor, Cdk4 Inhibitor Ill. The results are the mean of at least three independent assays, with 4 replicates per assay, and presented as the mean±SEM. p-value was calculated using 2-way ANOVA, *p<0.05, **p<0.01, ***p<0.001.\nTo answer this question, cell growth in the presence of the pan-CDK inhibitor seliciclib (also known as roscovitine or CYC202) was analyzed. Briefly, cells were seeded in 96-well plates and exposed to different drugs for seven days. Medium was replaced every two days, and viability was assessed by Alamar blue assay.\n(§2) Cells were seeded in 96 well-plates (2-5×10^4 cells/mL), with or without palbociclib (PD 0332991 isethionate, PZ0199, Sigma), ribociclib (LEE011 succinate, SC-488174, Santa Cruz), abemaciclib mesylate (LY2835219, S7158, Selleckchem), 3-ATA (sc-202414, Santa Cruz), Cdk4 inhibitor Ill (sc-202988, Santa Cruz), seliciclib (S1153, Selleckchem), and OPG-Fc (PL-33324, Amgen). Medium was replaced every 2 days. After 7 days, 1:10 Alamar blue (Invitrogen) was added to each well and fluorescence was measured 2 hours after incubation (excitation 560 nm; emission 590 nm) in an Infinite M200 microplate reader (Tecan)."}, "[2]": {"test_system": "TNBC cells (MDA-MB-231, MDA-MB-436, MDA-MB-468, MDA-MB-157, HCC1937, BT-20)", "experiment": "Alamar blue viability assay, TNBC cell lines with or without OPG-Fc", "conditions": "7 days", "experimental": "as §1\nMedium was replaced every two days, and viability was assessed by Alamar blue assay.\nas §2"}, "MDA-MB-231 TNBC cells": {"test_system": "MDA-MB-231 TNBC cells", "experiment": "Alamar blue viability assay, MDA-MB-231 TNBC cells with or without RANK knockdown", "conditions": "7 days", "experimental": "For lentiviral transduction, MDA-MB-231GFP+Luc+ cells were seeded in 24-well plates, at a density of 4×10^4 cells/well. 24 hours after seeding, medium was replaced by fresh medium containing 8 μg/ml Polybrene (Sigma) and RANK shRNA (h) lentiviral particles (15-20 μl/well; sc-42960-V, Santa Cruz) or control shRNA lentiviral particles (15-20 μl/well; sc-108080, Santa Cruz). Cells were selected with 0.5 μg/mL Puromycin dihydrochloride (Sigma) starting three days after transduction.\nas §1\nRANK KD clones were first generated for use in sensitivity assays. Briefly, MCF-7GFP+Luc+ cells were seeded in multi-well plates and then exposed to fresh medium comprising RANK shRNA (h) lentiviral particles or control shRNA lentiviral particles. The transduced cells were selected using Puromycin dihydrochloride starting three days post-transduction."}},
  "data": [
    {"molecule": "Nc1ccc2c(=S)c3ccccc3[nH]c2c1", "note": "[3-ATA, 3-Amino-9-thio(10H)-acridone]", "values": [
      {"measurement": "sensitivity of RANK OE cells to the drug (cell viability)", "setting": "[1]; 7 days", "value": "resistant"},
      {"measurement": "resistance of RANK OE cells to doses above 2.5 μM", "setting": "[1]; RANK OE cells, 7 days", "value": "resistant to even higher doses"}
    ]},
    {"molecule": "Cc1ccc(NC2=CC(=O)c3sc(C)nc3C2=O)cc1", "note": "[Cdk4 inhibitor Ill, 5-(N-(4-Methylphenyl)amino)-2-methyl-4,7-dioxobenzothiazole]", "values": [
      {"measurement": "sensitivity of RANK OE cells to the drug (cell viability)", "setting": "[1]; 7 days", "value": "resistant"}
    ]},
    {"molecule": "CCN1CCN(Cc2ccc(Nc3ncc(F)c(-c4cc(F)c5nc(C)n(C(C)C)c5c4)n3)nc2)CC1", "note": "[abemaciclib]", "values": [
      {"measurement": "sensitivity of RANK OE cells to the drug (cell viability)", "setting": "[1]; 7 days", "value": "decreased sensitivity"},
      {"measurement": "sensitivity of TNBC cells to CDK4/6 inhibitor (cell viability)", "setting": "[2]", "value": "resistance"}
    ]},
    {"molecule": "C[C@]12CC[C@@H]3c4ccc(O)cc4C[C@@H](CCCCCCCCC[S+]([O-])CCCC(F)(F)C(F)(F)F)[C@H]3[C@@H]1CC[C@@H]2O", "note": "(stereo partly shown) [fulvestrant]", "values": [
      {"measurement": "sensitivity of RANK OE cells to the drug (cell viability)", "setting": "[1]; 7 days", "value": "decreased sensitivity"}
    ]},
    {"molecule": "CN(C)C(=O)c1cc2cnc(Nc3ccc(N4CCNCC4)cn3)nc2n1C1CCCC1", "note": "[ribociclib]", "values": [
      {"measurement": "sensitivity of RANK OE cells to the drug (cell viability)", "setting": "[1]; 7 days", "value": "decreased sensitivity"},
      {"measurement": "sensitivity to CDK4/6 inhibitor (cell viability)", "setting": "MDA-MB-231 TNBC cells; MDA-231 cells and MDA-231 shControl cells", "value": "resistance"},
      {"measurement": "sensitivity to CDK4/6 inhibitor (cell viability)", "setting": "MDA-MB-231 TNBC cells; TNBC RANK KD cells (MDA-231 shRANK) vs RANK expressing cells", "value": "restored sensitivity"},
      {"measurement": "sensitivity of TNBC cells to CDK4/6 inhibitor (cell viability)", "setting": "[2]", "value": "resistance"}
    ]},
    {"molecule": "CC[C@H](CO)Nc1nc(NCc2ccccc2)c2ncn(C(C)C)c2n1", "note": "[seliciclib]", "values": [
      {"measurement": "sensitivity of RANK OE cells to pan-CDK inhibitor", "setting": "[1]; RANK OE cells vs parental (RANK low) cells, 7 days", "value": "less sensitive"},
      {"measurement": "enhancement of the effect of palbociclib, or palbociclib plus OPG-Fc", "setting": "[1]; RANK OE cells, 7 days", "value": "did not enhance"}
    ]},
    {"molecule": "B1", "values": [
      {"measurement": "sensitivity of RANK OE cells to CDK4/6 inhibitor combination therapy when further combined with OPG", "setting": "[1]; full-length OPG added to palbociclib or ribociclib plus fulvestrant or everolimus", "value": "restored"}
    ]}
  ]
}
